Source: patent US20180050029A1, “SELECTIVE CONNEXIN HEMICHANNELS BLOCKERS FOR THE TREATMENT OF EPILEPSY” (PONTIFICIA UNIVERSIDAD CATÓLICA DE CHILE, priority 2015, published 2018)
Where “and” joins values, the source holds several entries; their conditions need not be identical. Equal values may be shown once. Entries after “also recorded” stand apart in the source; their conditions may differ.

Key:
[1] = tested on: hemichannels and channels formed by connexins and pannexins; assay: Ethidium uptake in brain slices of PTZ-treated mice, slices treated with Cbx; type: cell-based; settings: for PTZ-induced ethidium uptake: 20 min on slices, astrocytes, oligodendrocytes and neurons
Protocol: Adult male mice at 2 months were injected intraperitoneally with PTZ (70 mg/kg) or PBS as a control. After 30 min post injection of the treatment, the action of Cbx at two concentrations was evaluate, 10 μM to block pannexin hemichannels and 100 μM to block both connexin and pannexin-based channels. The mice were sacrificed to extract the brains and obtain coronal slices 400 μm thick. The slices, once stabilized, were treated with Cbx for 20 min and then incubated with the ethidium bromide dye (4 μM) for 10 minutes. Thereafter, the slices were fixed and the immunofluorescence staining process was continued as described above. The mean data of ethidium uptake was normalized to the control condition (dotted line) of each cell type. […] The results obtained were expressed as the mean±SEM. Samples were determined using the Student's t-test (*p<0.05).

[2] = tested on: glial hemichannels; assay: Application of PTZ to brain slices; type: cell-based; settings: PTZ applied to brain slices
[3] = tested on: connexin hemichannels in brain cells; assay: Ethidium uptake in brain slices of PTZ-treated mice (time course); type: in vivo; settings: PTZ 70 mg/kg i.p.
Protocol: Adult male mice of 2 months were injected via i.p. with PTZ (70 mg/kg) or phosphate buffered saline (PBS) as a control. Mice were sacrificed after 10, 20 and 30 min post-treatment to extract the brains and generate coronal slices of 400 μm thick using a vibratome. The slices were stabilized for 1 h prior to dye uptake, immersed in ACSF (artificial cerebrospinal fluid), bubbled with 95% O2 and 5% CO2 and at room temperature. Brain slices were incubated with the ethidium bromide dye (Etd, 4 μM) for 10 minutes. Subsequently, the slices were washed and fixed for 1 h with paraformaldehyde (4%). The brain slices were incubated for 40 min with blocking solution (PBS, 0.2% gelatine, 1% triton). Subsequently, the samples were incubated overnight at 4° C. with the primary antibody against molecular markers of the different cell types: anti-mast cell “Transmembrane tyrosine kinase” receptor CD117 (CD117); Integrin αM anti-microglia (CD11b); anti-astrocytes “glial fibrillary acidic protein” (GFAP); anti-oligodendrocytes “proteolipid protein” (PLP) and anti-neuronal neuron-market (NeuN). After washing with PBS (phosphate buffered saline), they were incubated with the Cy2-conjugated secondary antibody for 2 hours at room temperature and avoiding light.
Finally, the brain slices were washed and mounted on Flouromount G mounting medium and observed directly by the laser-scanning confocal microscope (Nikon Eclipse Ti). Consecutive images were taken with 40× target at 1 μm intervals sequentially with two lasers (Argon, 488 nm and Helium/Neon, 543 nm). In FIG. 1, representative images of mast cells (1.A, C), microglia (1.E, F), astrocytes (1.1, K), oligodendrocytes (1.M, O) and neurons (1.Q, S) and Etd-uptake of PTZ-induced control mice and mice (1.B, D, 1.F, H, 1.J, L, 1.N, P, 1.R, T).
The mean data of ethidium uptake was normalized to the control condition (dotted line) of each cell type. […] The results obtained were expressed as the mean±SEM. Samples were determined using the Student's t-test (*p<0.05).

[4] = tested on: PTZ-induced seizures in C57BL/6 mice; assay: PTZ-induced seizures and mortality, anticonvulsant pretreatment; settings: for Animal Mortality: dead/total animals
[5] = tested on: adult C57BL/6 mice; assay: PTZ dose response, epileptogenic episodes and mortality in mice; type: in vivo; settings: for Mortality: dead/total animals
Protocol: As epileptogenic agent, we used PTZ (Pentylenetetrazole), a GABAA receptor inhibitor widely used in the study and development of anticonvulsant drugs.
To determine the effective dose, a dose response curve was performed based on the available literature. […]

[6] = tested on: connexin hemichannels in brain cells; assay: Ethidium uptake in brain slices of mice pretreated with D4 before PTZ; type: in vivo; settings: D4 2 mg/kg i.p. six and one hour before PTZ (70 mg/kg), 30 min post PTZ; microglia, astrocytes and neurons
Protocol: Immunofluorescence and visualization in confocal microscopy identified cell types.
The mean data from ethidium uptake was normalized to the control condition (see FIG. 5, dotted line) of each cell type. […] The results obtained were expressed as the mean±SEM. Samples were determined using the Student's t-test (*p<0.05).

[7] = tested on: C57B/6 mice; assay: Toxicity or lethality of molecule D4, supervision protocol; type: in vivo; settings: 0.2, 2, 20, 200, 2000 mg/kg i.p.
Protocol: To evaluate the toxicity or lethality of the molecule D4, Two-month adult mice were injected intraperitoneally in increasing doses (0.2; 2; 20; 200; 2000 mg/kg mouse weight) and were left under observation for 72 hours. After the observation time, the behavioral and physiological aspects of the animals were evaluated based on the Protocol of Supervision according to the Bioethics and Biosafety guidelines of the Faculty of Biological Sciences of the Pontificia Universidad Catolica de Chile that rules in the laboratory. The variables considered included physiological data (weight loss), appearance (posture) and spontaneous behavior (attitude to stimulation). […] In addition, mortality was zero at all concentrations evaluated. The evaluation of mortality of the molecule D4 as an anticonvulsant drug administered in mice prior to the induction of epilepsy with PTZ was zero (Table 3).
Measurements are performed by trained personnel, who know the basal or usual behavior of the animals under study.

[8] = PTZ (70 mg/kg) without molecule D4

CC1(C)[C@@H](OC(=O)CCC(=O)O)CC[C@]2(C)[C@H]3C(=O)C=C4[C@@H]5C[C@@](C)(C(=O)O)CC[C@]5(C)CC[C@@]4(C)[C@]3(C)CC[C@@H]12 [Carbenoxolone, carbenoxolone]
PTZ-induced ethidium uptake ([1]; Cbx 10 μM): block the uptake of ethidium
PTZ-induced ethidium uptake ([1]; Cbx 100 μM): block the uptake of ethidium
PTZ-induced hemichannel and channel activity ([1]; FIG. 3 legend, macroglia and neurons): blocks hemispheric activity formed by PTZ-induced connexins and channels

C1CCc2nnnn2CC1 [PTZ, Pentylenetetrazole]
opening of glial hemichannels [2]: induced the opening of glial hemichannels
hemichannel activity (ethidium uptake) in brain slices ([3]; versus control mice): induces activity of connexin hemichannels in brain cells; also recorded: positive for high activity of hemichannels; also recorded: positive for Etd fluorescence
hemichannel activity (ethidium uptake normalized to control) ([3]; astrocytes and oligodendrocytes, first (FIG. 2.A)): increases the activity of the hemichannels
hemichannel activity (ethidium uptake normalized to control) ([3]; mast cells, microglia and neurons, after 30 min (FIG. 2.B and C)): increases the activity of the hemichannels
% Mortality [4, 8]: 20%
Animal Mortality [4, 8]: 3/15
% Mortality ([5]; PTZ 65 mg/kg i.p. single dose): 0%
Eliptogenic Episode ([5]; PTZ 65 mg/kg i.p. single dose): No
Mortality ([5]; PTZ 65 mg/kg i.p. single dose): 0/3
% Mortality ([5]; PTZ 70 mg/kg i.p. single dose): 20%
Eliptogenic Episode ([5]; PTZ 70 mg/kg i.p. single dose): induces convulsions and Yes
Mortality ([5]; PTZ 70 mg/kg i.p. single dose): without being lethal and 3/15
% Mortality ([5]; PTZ 75 mg/kg i.p. single dose): 50%
Eliptogenic Episode ([5]; PTZ 75 mg/kg i.p. single dose): Yes
Mortality ([5]; PTZ 75 mg/kg i.p. single dose): 2/4
% Mortality ([5]; PTZ 80 mg/kg i.p. single dose): 100%
Eliptogenic Episode ([5]; PTZ 80 mg/kg i.p. single dose): Yes
Mortality ([5]; PTZ 80 mg/kg i.p. single dose): 3/3
% Mortality ([5]; PTZ 90 mg/kg i.p. single dose): 100%
Eliptogenic Episode ([5]; PTZ 90 mg/kg i.p. single dose): Yes
Mortality ([5]; PTZ 90 mg/kg i.p. single dose): 3/3
time to develop seizures post-administration ([5]; PTZ-treated mice): ≤ 10 min
behaviour in the hours after the seizures ([5]; PTZ-treated mice, period of several hours): very low motor activity and sporadic contractions
epileptogenic episodes ([5]; higher doses (>100 mg/kg)): induce epileptogenic episodes
mortality rate ([5]; higher doses (>100 mg/kg), at 5 min after administration): 100%
epileptogenic episodes ([5]; lower dose (<65 mg/kg)): does not induce evident epileptogenic episodes

O=C1NC(=O)C(c2ccccc2)(c2ccccc2)N1 [phenytoin, Phenytoin]
prevention of PTZ-induced seizures ([4]; phenytoin treatment, after 10 minutes of treatment): does not prevent PTZ-induced seizures

O=C(OC(C(=O)c1ccc(Cl)cc1)c1ccccc1)c1ccc2ccccc2n1 (centres unmarked) [Molecule D4, 2-(4-chlorophenyl)-2-oxo-1-phenylethyl quinoline-2-carboxylate]
Animal Mortality ([4]; Molecule D4 (2 mg/kg) prior to PTZ (70 mg/kg)): zero
PTZ-induced hemichannel activity (ethidium uptake) [6]: blocks the activity of hemichannels formed by PTZ-induced connexin in brain cells; also recorded: not positive to Etd; also recorded: blocks PTZ-induced hemichannel activity and basal activation
Mortality ([7]; 72 hours observation): zero
observable side effects ([7]; 72 hours observation, 2000 mg/kg): no observed side effects; also recorded: no observable side effects
supervision protocol score (weight loss, posture, spontaneous behavior) ([7]; 72 hours, score 0-3 is normal): zero
